Values quoted from earlier work in US20250345315A1, “Dispenseable formulation for active pharmaceutical ingredients” (CurifyLabs Oy, priority 2024, published 2025).
Structures can show the parent of a compound that is named as a salt.

Conditions: permeability/solubility class per ICH M9 guideline
In the case of `CC(C)NCC(O)COc1ccc(COCCOC(C)C)cc1` (centres unmarked) [Bisoprolol fumarate], the Class is listed as “I”. In the case of `CC(=O)Oc1ccccc1C(=O)O` [Acetylsalicylic acid], the Class is listed as “I”. In the case of `C[C@]12C=CC(=O)C=C1CC[C@@H]1[C@@H]2[C@@H](O)C[C@@]2(C)[C@H]1CC[C@]2(O)C(=O)CO` [Prednisolone], the Class is listed as “I”. In the case of `CC(C)NCC(O)COc1cccc2ccccc12` (centres unmarked) [Propranolol HCl], the Class is listed as “I”. For `CC(=O)Nc1ccc(O)cc1` [Paracetamol], the Class is listed as “I”.
